Here are results for 17 compounds from US8425885B2, “Substituted 3-(phenoxymethyl) benzyl amines and personal care compositions” (Conopco, Inc., priority 2009, dated 2013).

Each structure is given as a SMILES string.

For the assay, the system named is Melanoderm tissue equivalent model MEL-300 (MatTek) containing melanocytes obtained from dark skin individuals. The assay is described as follows: Melanoderm tissue equivalent melanin content (inhibition of melanogenesis). It counts as cell-based. The note with it: Melanocyte, 336 h, total melanin content vs DMSO vehicle, 5 μM in maintenance medium, 14 days. As to the method: Melanoderm tissue equivalent model MEL-300 (MatTek: Ashland, Mass.) containing melanocytes obtained from dark skin individuals were cultured as per supplier instructions. Components were added to the maintenance medium phase (no topical treatments) at a final concentration of 5 μM for 14 days at which time the experiment was terminated and the tissues assessed for melanin content. Medium and treatments were changed three times per week. DMSO was utilized as the vehicle control and all treatments were performed at least in duplicate.
For quantification of total melanin, each Melanoderm was placed into an individual Eppendorf tube (2 mL) into which 250 μL of Solvable™ tissue solubilizer (Packard Bioscience Co., Cat#6NE9100) was added. Each tube was vortexed and incubated at 60° C. for 18 hours. Each sample was then centrifuged (5-minutes at 13,000 RPMs) to remove any particulates. 100 or 200 μL of supernatant were transferred to a 96 well microtiter plate and the absorbance read at 490 nm. Total melanin content was calculated from a standard curve using synthetic melanin (Sigma Cat# M8631). Data was analyzed for significance using the t-test in Microsoft Excel to generate p-values (p-values less than 0.01 represent 99% confidence, p values of 0.05 represent 95% confidence both of which are statistically significant).
In the case of `CCN(C)Cc1cccc(COc2ccccc2OC)c1` [5f, N-(3-((2-methoxyphenoxy)methyl)benzyl)-N-methylethanamine], the inhibition at 5 µM was 20.8%. The same measure for `CCN(CC)Cc1cccc(COc2cccc3ccccc23)c1` [5h, N-(3-((naphthalen-1-yloxy)methyl)benzyl)-N-ethylethanamine]: 33.5%. For the compound `CCNCc1cccc(COc2cccc3ccccc23)c1` [5u, N-((3-((naphthalen-1-yloxy)methyl)phenyl)methyl)ethanamine], the inhibition at 5 µM came to 42.5%. With `CCc1ccccc1OCc1cccc(CN(C)C)c1` [5m, (3-((2-ethylphenoxy)methyl)phenyl)-N,N-dimethylmethanamine], the inhibition at 5 µM was 31.6%. With `CCc1ccc(OCc2cccc(CN(C)C)c2)cc1` [5k], the inhibition at 5 µM is -0.6%. Then `CCN(CC)Cc1cccc(COc2ccccc2)c1` [5a, N-(3-(phenoxymethyl)benzyl)-N-ethylethanamine], with 14.4%; and `CCN(CC)Cc1cccc(COc2ccccc2C(C)C)c1` [5g, N-(3-((2-isopropylphenoxy)methyl)benzyl)-N-ethylethanamine], with 29.9%; and `CN(C)Cc1cccc(COc2cccc3ccccc23)c1` [5i, N,N-dimethyl(3-((naphthalen-1-yloxy)methyl)phenyl)methanamine], with 25.3%. Take `CCc1ccccc1OCc1cccc(CNC)c1` [5q, (3-((2-ethylphenoxy)methyl)phenyl)-N-methylmethanamine]: the inhibition at 5 µM turned out to be 42.3%. As to `CCN(CC)Cc1cccc(COc2ccccc2C)c1` [5b, N-(3-((o-tolyloxy)methyl)benzyl)-N-ethylethanamine], the inhibition at 5 µM stood at 27.1%. In the case of `CC(C)NCc1cccc(COc2cccc3ccccc23)c1` [5j, N-(3-((naphthalen-1-yloxy)methyl)benzyl)propan-2-amine], the inhibition at 5 µM is 26.5%. With `CCNCc1cccc(COc2ccccc2CC)c1` [5r, N-(3-((2-ethylphenoxy)methyl)benzyl)ethanamine], the inhibition at 5 µM worked out at 33.9%. Take `COc1ccccc1OCc1cccc(CNC(C)C)c1` [5e, N-(3-((2-methoxyphenoxy)methyl)benzyl)propan-2-amine]: the inhibition at 5 µM was 14.7%. Then `CCc1ccccc1OCc1cccc(CN(CC)CC)c1` [5c, N-(3-((2-ethylphenoxy)methyl)benzyl)-N-ethylethanamine], with 30.7%; and `CCN(CC)Cc1cccc(COc2ccccc2OC)c1` [5d, N-(3-((2-methoxyphenoxy)methyl)benzyl)-N-ethylethanamine], with 9.3%; and `NCc1cccc(COc2cccc3ccccc23)c1` [5s, (3-((naphthalen-1-yloxy)methyl)phenyl)methanamine], with 4%.

For the compound `CNCc1cccc(COc2cccc3ccccc23)c1` [5t, N-methyl(3-((naphthalen-1-yloxy)methyl)phenyl)methanamine], the inhibition at 5 µM worked out at 27.1%.

As usually defined, the inhibition is the relative decrease from the control value, in per cent.
